Results from patent publication US8685928B2, “Antagonists of MUC1” (Dana-Farber Cancer Institute, Inc., priority 2010, dated 2014).
≈ marks a conversion by molar mass, not a printed value. Entries after “also recorded” stand apart in the source; their conditions may differ. Positions of bridges follow the written chain, without caps; N, C: chain ends. Non-standard residues stand in square brackets, D forms with d. Residues, ends and D or L forms follow the SMILES beside them.

Columns and labels:
H1975 Lung cancer cells = test: Inhibition of cell proliferation, trypan blue exclusion (Table 2); assay type: cell-based, human; details: 5 μM peptide every day, 6-day treatment
Procedure: (§1) Cells (ZR-75-1 breast carcinoma or H-1975 non-small cell lung carcinoma) were plated separately in 24-well plates for 24 hours prior to treatment with different peptides. The cells were then treated with 5 μM (final concentration) of different peptides every day for 4-6 days. On the day of termination, cells were washed two times with PBS and trypsinized with 0.3 ml of Trypsin/EDTA. Cell growth media was used to stop the trypsin reaction. Following washing, the cells were centrifuged and the cell pellets were re-suspended in PBS for counting in hemacytometer.
(§2) The trypan blue dye exclusion method was used to determine the number of viable cells present in a cell suspension. Cell suspension was mixed as 1:1 with the trypan blue dye and then visually examined in a hemacytometer. A viable cell will have a clear cytoplasm whereas a non-viable/dead cell will be stained with trypan blue dye. By doing this trypan blue exclusion method, viable cell numbers were counted and percent inhibition of proliferation was then calculated comparing with untreated controls.

Solubility = assay type: physicochemical; details: for solubility: as peptide
[1] = molecular target: nicotinic acetylcholine α1 (bungarotoxin) receptor (Homo sapiens, UniProt P02708+P07510+Q07001); test: biochemical
[2] = system: human carcinoma cell lines
Procedure: A series of in vitro and in vivo primary pharmacodynamic studies was conducted to assess efficacy and mechanism of action of GO-203-2c in human tumor cells.
GO-203-2 and GO-203-2c were evaluated for ability to inhibit proliferation of murine and human carcinoma cell lines in vitro. Test compound (5 μM final concentration) was added to tumor cell cultures daily for 5 to 6 days, and cell viability was determined by trypan blue dye exclusion.

[3] = system: PC3 prostate carcinoma xenograft; test: PC3 human prostate carcinoma xenograft model; assay type: in vivo, mouse; details: 7.5 mg/kg
Procedure: Male BALB/c nu/nu mice (6-7 weeks old; Charles River Laboratories, Wilmington, Mass.) were injected with 5 million A549 or PC3 cells in the right thigh. When tumors reached a predetermined size (approximately 80-100 mm^3; 10-16 days after tumor cell implantation), treatment was initiated as follows: Group 1, saline control (daily×21 days); Group 2, GO-203-2c (7.5 mg/kg, 5 days on/2 days off×3 cycles); Group 3, GO-203-2c (7.5 mg/kg, daily×21 days). In the A549 study, Group 3 animals that still had palpable/measurable tumors at the end of the 21-day treatment period were administered an additional 9 days of GO-203-2c treatment (Group 3′), with a one week interim period between treatments.

[4] = molecular target: norepinephrine transporter (Homo sapiens, UniProt P23975); test: biochemical
[5] = system: MiaPaCa pancreatic carcinoma xenograft; test: MiaPaCa human pancreatic carcinoma xenograft model, GO-203-2c IV; assay type: in vivo, mouse
Procedure: Male BALB/c nu/nu mice (8 weeks old; Charles River Laboratories, Wilmington, Mass.) were injected with 2.5 million MiaPaCa cells in the right thigh. When tumors reached a predetermined size (approximately 100 mm^3; 34 days after tumor cell implantation), mice (8 per group) were administered normal saline (control) or GO-203-2c (10 mg/kg) IV daily for 21 consecutive days. At the end of the treatment period, and following a one week interim period, animals that received GO-203-2c initially were administered an additional series of GO-203-2c daily injections.

[6] = Redox conversion in the presence of glutathione; assay type: physicochemical; details: in the presence of low levels of glutathione
Text: The drug substance is isolated as the disulfide, with the disulfide bond cyclizing the D-cys10 and D-cys12 residues. The synthesis, cleavage, oxidation and purification steps use standard solid phase procedures as described in the literature. A solution phase procedure for converting the peptide to the cyclic disulfide was developed. […] The biological properties of GO-203-2c will in part be governed by glutathione, which provides a significant portion of in vivo redox buffering capacity as mentioned above. Total glutathione levels approximate 20-30 μM in blood plasma, 0.5 mM in whole blood, and 5-10 mM intracellularly. […] Intracellular glutathione concentrations are sufficient to convert GO-203-2c (disulfide) to the GO-203-2 (dithiol) species that binds to the biological target, MUC1-CD.

[7] = system: ZR-75-1 Breast cancer cells; test: Inhibition of cell proliferation, trypan blue exclusion (Table 1); assay type: cell-based, human; details: 5 μM peptide every day, 6-day treatment
Procedure: as §1, §2

Hygroscopicity = assay type: physicochemical; details: drug substance powder
Text: There is no evidence to support an isolable hydrate. GO-203-2c HCl is hygroscopic, and precautions must be taken to avoid moisture uptake while handling the drug substance powder.

MUC1-CD = molecular target: T1, MUC1-CD (Homo sapiens, UniProt P15941); test: MUC1-CD oligomerization in HEK 293T cells transfected with GFP- and Flag-tag MUC1-CD; assay type: cell-based; details: HEK 293T cells transfected with human MUC1-CD
T1 construct: Mucin 1 (MUC1) oncoprotein cytoplasmic domain (MUC1-CD); expressed in transfected cells; host or cells: HEK 293T
Text: This finding is not surprising based on a requirement for the cysteine residues in the GO-203-2 binding domain (CQCRRKN) to be available for binding with cysteine residues on the corresponding binding domain of the MUC1-CD protein.

[8] = 10 mg/kg IV daily for 21 consecutive days

T1 sequence (P15941 1182-1255 limits assumed): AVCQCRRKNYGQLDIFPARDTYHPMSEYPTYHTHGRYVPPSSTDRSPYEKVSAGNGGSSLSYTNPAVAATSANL
Sequence of norepinephrine transporter (P23975 whole entry, species assumed): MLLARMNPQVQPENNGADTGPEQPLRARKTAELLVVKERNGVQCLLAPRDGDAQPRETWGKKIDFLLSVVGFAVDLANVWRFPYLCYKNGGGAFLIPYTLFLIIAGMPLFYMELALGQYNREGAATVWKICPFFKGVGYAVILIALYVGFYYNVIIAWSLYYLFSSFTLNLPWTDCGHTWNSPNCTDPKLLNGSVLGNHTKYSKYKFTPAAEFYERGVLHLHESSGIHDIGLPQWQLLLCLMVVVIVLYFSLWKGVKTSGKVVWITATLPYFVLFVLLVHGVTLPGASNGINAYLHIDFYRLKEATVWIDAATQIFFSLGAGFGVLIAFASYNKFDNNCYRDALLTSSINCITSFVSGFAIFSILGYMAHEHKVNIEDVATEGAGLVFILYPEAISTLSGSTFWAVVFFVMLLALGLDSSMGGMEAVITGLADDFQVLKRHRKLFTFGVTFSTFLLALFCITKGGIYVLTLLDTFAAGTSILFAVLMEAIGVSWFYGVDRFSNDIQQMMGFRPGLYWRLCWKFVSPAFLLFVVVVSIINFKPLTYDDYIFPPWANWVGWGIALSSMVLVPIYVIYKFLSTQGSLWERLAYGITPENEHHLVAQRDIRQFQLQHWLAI
Sequence of nicotinic acetylcholine α1 (bungarotoxin) receptor (P07510 23-517): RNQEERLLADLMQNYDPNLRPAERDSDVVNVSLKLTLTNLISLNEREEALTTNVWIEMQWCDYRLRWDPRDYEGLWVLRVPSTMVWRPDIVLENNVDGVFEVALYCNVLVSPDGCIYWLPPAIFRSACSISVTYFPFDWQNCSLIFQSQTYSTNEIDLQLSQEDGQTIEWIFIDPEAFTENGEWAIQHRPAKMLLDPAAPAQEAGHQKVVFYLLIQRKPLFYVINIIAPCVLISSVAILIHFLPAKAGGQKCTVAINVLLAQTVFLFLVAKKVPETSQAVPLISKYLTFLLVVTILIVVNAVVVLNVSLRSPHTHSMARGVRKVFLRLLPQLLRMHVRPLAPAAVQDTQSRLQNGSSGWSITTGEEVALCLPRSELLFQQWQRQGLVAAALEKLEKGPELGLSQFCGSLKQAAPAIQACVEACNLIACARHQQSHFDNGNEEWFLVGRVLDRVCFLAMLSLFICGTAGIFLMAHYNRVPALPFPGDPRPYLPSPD
Sequence of nicotinic acetylcholine α1 (bungarotoxin) receptor (P02708 21-457): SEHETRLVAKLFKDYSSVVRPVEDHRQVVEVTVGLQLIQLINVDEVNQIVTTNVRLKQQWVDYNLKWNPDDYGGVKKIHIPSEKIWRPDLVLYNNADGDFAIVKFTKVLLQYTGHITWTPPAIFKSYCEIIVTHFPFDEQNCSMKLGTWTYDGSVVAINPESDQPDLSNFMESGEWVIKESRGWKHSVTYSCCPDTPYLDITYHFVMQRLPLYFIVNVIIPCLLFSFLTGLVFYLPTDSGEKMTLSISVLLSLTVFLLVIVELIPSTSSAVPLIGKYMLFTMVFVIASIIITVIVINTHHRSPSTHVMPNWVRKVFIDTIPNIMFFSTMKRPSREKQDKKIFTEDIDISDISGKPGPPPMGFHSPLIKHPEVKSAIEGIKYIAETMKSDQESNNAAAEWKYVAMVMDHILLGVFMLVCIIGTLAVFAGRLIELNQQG
Sequence of nicotinic acetylcholine α1 (bungarotoxin) receptor (Q07001 22-517): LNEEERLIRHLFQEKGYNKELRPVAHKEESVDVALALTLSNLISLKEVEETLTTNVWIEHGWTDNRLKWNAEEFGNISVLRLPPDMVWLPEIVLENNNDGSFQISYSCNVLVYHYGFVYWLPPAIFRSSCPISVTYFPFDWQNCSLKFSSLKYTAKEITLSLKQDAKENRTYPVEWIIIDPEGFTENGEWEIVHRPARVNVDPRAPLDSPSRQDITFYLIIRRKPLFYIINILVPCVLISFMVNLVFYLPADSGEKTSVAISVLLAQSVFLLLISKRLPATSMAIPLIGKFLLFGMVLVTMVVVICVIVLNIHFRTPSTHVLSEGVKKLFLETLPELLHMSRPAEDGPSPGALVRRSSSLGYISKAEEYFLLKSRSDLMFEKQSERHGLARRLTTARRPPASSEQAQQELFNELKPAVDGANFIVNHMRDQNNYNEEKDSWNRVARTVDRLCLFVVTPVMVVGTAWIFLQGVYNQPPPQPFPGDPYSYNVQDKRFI
Sequence of nicotinic acetylcholine α1 (bungarotoxin) receptor (P11230 24-501, further chain): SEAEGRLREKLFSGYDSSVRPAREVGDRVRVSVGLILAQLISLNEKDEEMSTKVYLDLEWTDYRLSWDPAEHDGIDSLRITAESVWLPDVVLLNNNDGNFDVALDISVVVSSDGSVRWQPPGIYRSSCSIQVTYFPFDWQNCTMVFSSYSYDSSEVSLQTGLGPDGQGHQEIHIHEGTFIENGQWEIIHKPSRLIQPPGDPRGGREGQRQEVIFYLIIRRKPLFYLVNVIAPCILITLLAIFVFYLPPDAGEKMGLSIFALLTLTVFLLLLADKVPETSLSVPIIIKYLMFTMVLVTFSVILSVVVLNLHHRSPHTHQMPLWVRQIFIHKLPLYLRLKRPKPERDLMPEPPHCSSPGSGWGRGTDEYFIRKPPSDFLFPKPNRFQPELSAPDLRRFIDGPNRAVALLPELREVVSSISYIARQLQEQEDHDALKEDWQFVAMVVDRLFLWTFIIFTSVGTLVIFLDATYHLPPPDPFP

CC(=O)N[C@H](CCCNC(=N)N)C(=O)N[C@H](CCCNC(=N)N)C(=O)N[C@H](CCCNC(=N)N)C(=O)N[C@H](CCCNC(=N)N)C(=O)N[C@H](CCCNC(=N)N)C(=O)N[C@H](CCCNC(=N)N)C(=O)N[C@H](CCCNC(=N)N)C(=O)N[C@H](CCCNC(=N)N)C(=O)N[C@H](CCCNC(=N)N)C(=O)N[C@@H]1CSSC[C@H](C(=O)N[C@H](CCCNC(=N)N)C(=O)N[C@H](CCCNC(=N)N)C(=O)N[C@H](CCCCN)C(=O)N[C@H](CC(N)=O)C(N)=O)NC(=O)[C@@H](CCC(N)=O)NC1=O [GO-203-2c, Ac-(D)Arg-(D)Arg-(D)Arg-(D)Arg-(D)Arg-(D)Arg-(D)Arg-(D)Arg-(D)Arg-(D)Cys-(D)Gln-(D)Cys-(D)Arg-(D)Arg-(D)Lys-(D)Asn-NH2 disulfide] (Ac-[dR][dR][dR][dR][dR][dR][dR][dR][dR][dC][dQ][dC][dR][dR][dK][dN]-NH2; disulfide 10-12)
Avg (viable cell number of Groups 1-3) (H1975 Lung cancer cells): 7.2 | % inhibition (H1975 Lung cancer cells; vs untreated control): 60.7% | Group-1 (viable cell number, individual well) (H1975 Lung cancer cells; well having 10,000 cells): 8.47 | Group-2 (viable cell number, individual well) (H1975 Lung cancer cells; well having 10,000 cells): 7.13 | Group-3 (viable cell number, individual well) (H1975 Lung cancer cells; well having 10,000 cells): 6.02 | solubility (Solubility; 10 mM acetate pH 3.0-4.0, 0.9% NaCl): > 50 mg/mL | solubility (Solubility; 10 mM acetate pH 4.0): 7 to 37 mg/mL (≈ 2.98 to 15.7 mM) | solubility (Solubility; 1% (v/v) aqueous acetic acid): > 110 mg/mL | solubility (Solubility; 10% (v/v) aqueous acetonitrile): > 110 mg/mL | Time without gel formation (Solubility; solutions in water, 1% aqueous acetic acid or 10% aqueous acetonitrile): at least 5 days | solubility (Solubility; water): > 240 mg/mL | IC50 [1]: 3 to 8 µM | 50% inhibition (IC50) of proliferation [2]: 5 to 11 µg/mL | IC50 [2]: 2 to 5 µM | Tumor response ([3]; 5 days on/2 days off x 3 cycles): complete growth arrest and regression; also recorded: tumor growth was immediately arrested and tumors regressed | Tumor response ([3]; daily x 21 days): complete growth arrest and regression; also recorded: tumor growth was immediately arrested and tumors regressed | IC50 [4]: 3 to 8 µM | Mice tumor-free [5, 8]: 2 of 8 and Two out of 8 | Tumor response [5, 8]: significant arrest of tumor growth; also recorded: tumor growth delay | Tumor response after re-dosing ([5]; another cycle of daily IV 10 mg/kg from day 29): somewhat stabilized, with a very slow growth | Average tumor size on day 29 ([5]; six remaining mice after 7-day rest period, at start of re-dosing): ~400 mm^3 | Conversion of disulfide to reduced (dithiol) form [6]: readily re-forms the reduced (dithiol) GO-203-2 peptide | Avg (viable cell number of Groups 1-3) [7]: 9.83 | % inhibition ([7]; vs untreated control): 58.69% | Group-1 (viable cell number, individual well) ([7]; well having 10,000 cells): 9.18 | Group-2 (viable cell number, individual well) ([7]; well having 10,000 cells): 11.22 | Group-3 (viable cell number, individual well) ([7]; well having 10,000 cells): 8.55 | Hygroscopicity (Hygroscopicity): hygroscopic | Inhibition of MUC1-CD oligomerization (MUC1-CD): inhibition
